“Also recorded” adds a separate entry of the source. Like-named read-outs stand apart in the source and are kept apart here.
Tests used:
[1] = Solubility of paclitaxel in various solvents (HPLC); type: physicochemical
Description: A known amount of the drug, as a powder (two different aliquots of purified drug were obtained from Xechem Inc. New Brunswick, N.J.), was equilibrated in the respective solvent at RT (22° C.) over 1 hour. An aliquot was then removed and diluted in MeOH prior to HPLC at predetermined times. […] Different solvent systems were evaluated relative to the above estimates of necessary solubility to arrive at a clinically relevant stable stock formulation. This stock formulation would then be diluted with a "final solvent" to yield a complete stable clinical working formulation of 1-5 mg/ml, that could be infused parenterally. The final solvent was selected from one of the commonly utilized parental infusion fluids, NS, 5% dextrose in water or a parenterally acceptable aqueous lipid emulsion (e.g., Intralipid), all of which are readily available and approved for parenteral administration.
An excess of paclitaxel as a powder was added to DMA, DMSO, PEG, and PG at RT. Each mixture was placed in a dark environment and checked visually for up to 1 hour for evidence of solubilization.

[2] = for Stability (in words) / Degradation over first 60 days (in words): 25 mg/ml; for Stability of use-formulation (in words): aqueous lipid emulsion as terminal solvent
Description: To study the physical and chemical stability of the various parenteral formulations, 3 sets of studies were performed: […]
The various formulations were analyzed by HPLC immediately after mixing, then hourly for 8 hours, and then at gradually increasing time intervals for more than 10 days, depending on the initial rate of degradation in the respective solvent system.
Different aliquots were stored at 4° C., 22° C., 40° C., and 60° C. […] Immediately after solubilization and at various intervals up to more than 50 days, aliquots from different samples were analyzed by HPLC.

erythrocytes = assay: Hemolysis studies in vitro; type: cell-based; details: drug concentrations up to and exceeding 50 μg/ml; 4 hours at 37° C.
Description: The procedure of Parthasarathy et al. was used to examine the hemolytic potential of a few selected preparations and the LD50 values of the most optimal formulation was constructed as described (Parthasarathy et al., 1994). Heparinized blood was mixed with an equal volume of Alsever's solution. […] These mixtures were then incubated for 4 hours at 37° C. At the end of the incubation, the cells were pelleted at 10,000×gin an Eppendorf micro-centrifuge and the release of hemoglobin in the supernatant (ie., hemolysis) was determined spectrophotometrically at 550 nm. Maximum lysis was measured against a reference solution of erythrocytes that had been completely lysed by hypotonic shock. The hemolytic potential of the "optimal" complete formulation was evaluated as described (Parthasarathy et al., 1994) and the data were plotted as the fraction of healthy cells versus 1n (total volume percent). Total volume percent was defined as the volume percent of the vehicle in the mixture after dilution with blood. This was done to simulate the dilution of the respective drug formulation in the blood stream after parenteral administration.

[3] = Paclitaxel plasma concentration after iv injection in rats; type: in vivo, male Sprague-Dawley rats; details: 3 mg/kg iv
Description: For the in vivo study, male Sprague-Dawley rats with a body weight of 250-300 g were used. They were bought from the Harlan-Sprague-Dawley local breeding facility in Houston, Tex. The animals were allowed a minimum of 3-4 days to accommodate to the change of environment after shipping to the MD Anderson Cancer Center. All animals were allowed free access to commercial feed and tap water prior to and during the pharmacological study. The dose of 3 mg/kg was determined as the highest dose that could be given to the rats as a slow iv injection of the Cremophor® EL based preparation without a lethal anaphylactoid reaction in the absence of pharmacological premedication.
This avoided the possible influence of induction of microsomal liver enzymes which could alter drug metabolism/elimination and influence (the later part of) the plasma concentration curve. For the same reason, all animals were unanesthesized and only physically restrained during the drug injection. The drug concentration of the injected use-formulation was confirmed by HPLC prior to use. […] The blood was centrifuged at 1,000×g for 10 min and the plasma was separated and stored at -80° C. until extracted and assayed by HPLC as described above.

[4] = test system: ovarian and mammary carcinomas; details: clinical testing; cited from earlier work

CC(=O)O[C@H]1C(=O)[C@@]2(C)[C@H]([C@H](OC(=O)c3ccccc3)[C@]3(O)C[C@H](OC(=O)[C@H](O)[C@@H](NC(=O)c4ccccc4)c4ccccc4)C(C)=C1C3(C)C)[C@]1(OC(C)=O)CO[C@@H]1C[C@@H]2O [Paclitaxel]
solubility ([1]; 5% dextrose, solvent 5% dextrose, 60 min at room temperature, read-out: Solubility): < 100 µg/mL | Solubility (in words) ([1]; PEG-400, PG, NS, Intralipid and 5% dextrose, RT): did not yield any significant concentrations of solubilized drug | solubility ([1]; dma, organic solvent or mixture, solvent DMA, RT, read-out: Solubility): > 200000 µg/mL | solubility ([1]; dmso, organic solvent or mixture, solvent DMSO, RT, read-out: Solubility): > 100000 µg/mL | solubility ([1]; intralipid, solvent Intralipid, 60 min at room temperature, read-out: Solubility): < 100 µg/mL | Solubility (in words) ([1]; most of the aqueous solvents): insoluble in most of the aqueous solvents | solubility ([1]; normal saline, solvent normal saline, 60 min at room temperature, read-out: Solubility): < 100 µg/mL | solubility ([1]; peg, organic solvent or mixture, solvent PEG, 60 min at room temperature, read-out: Solubility): < 100 µg/mL | solubility ([1]; propylene glycol, organic solvent or mixture, solvent propylene glycol, 60 min at room temperature, read-out: Solubility): < 100 µg/mL | solubility ([1]; solvent DMA, RT): > 100000 µg/mL | Time within which significant degradation took place [2]: 4 to 6 h | Time without discernible degradation [2]: more than 4.5 months | Stability (in words) ([2]; room temperature): stable at 25 mg/ml for several months at room temperature | Concentration of stable solution ([2]; DMA with PEG added (stock solution)): 25000 µg/mL | Degradation over first 60 days (in words) ([2]; DMA:PEG (1:3, v/v) stock, 4° C.): did not show any significant degradation | Stability (in words) ([2]; DMA:PEG (1:3, v/v) stock, 4° C., 4.5 months): overlapping with that recorded for the samples stored at RT | Degradation over first 60 days (in words) ([2]; DMA:PEG (1:3, v/v) stock, 40° C.): did not show any significant degradation | Degradation over first 60 days (in words) ([2]; DMA:PEG (1:3, v/v) stock, RT): did not show any significant degradation | Stability of use-formulation (in words) ([2]; 1 mg/ml, 4° C.): stable at 1 mg/ml and at 5 mg/ml for over one week | Stability of use-formulation (in words) ([2]; 1 mg/ml, RT): stable at 1 mg/ml and at 5 mg/ml for over one week | Stability of use-formulation (in words) ([2]; 5 mg/ml, 4° C.): stable at 1 mg/ml and at 5 mg/ml for over one week | Stability of use-formulation (in words) ([2]; 5 mg/ml, RT): stable at 1 mg/ml and at 5 mg/ml for over one week | Degradation on storage (in words) ([2]; in DMA, >100 mg/ml, RT): started degrading slowly after storage over night at RT | Paclitaxel dependent lysis (in words) (erythrocytes): barely notable above background | Paclitaxel plasma concentrations (in words) [3]: clearly cytocidal concentrations of paclitaxel are maintained for many hours; also recorded: clearly reach, and for extended time, remain in the antineoplastic range | Antitumor activity (in words) [4]: impressive activity against ovarian and mammary carcinomas

Reference: patent US6107333A (priority 1999, dated 2000)
